Results as given in US7741354B2, “Inhibitors of glutaminyl cyclase” (Probiodrug AG, priority 2006, dated 2010).

Target: hQC (Homo sapiens, UniProt Q16769)
Experiment: Fluorometric (fluorescent) assay of hQC inhibition, IC50
Format: biochemical
Details: hQC inhibition; read-out: IC50
In short: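 QC activity followed at 30° C via pyroglutamyl aminopeptidase-coupled release of fluorophore, using either H-Gln-βNA (0.2 mM; ex/em 320/410 nm; 0.2 M Tris/HCl pH 8.0, 20 mM EDTA) or H-Gln-AMC (ex/em 380/460 nm; 0.05 M Tris/HCl pH 8.0, 5 mM EDTA).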

hQC, sequence (Q16769 29-361): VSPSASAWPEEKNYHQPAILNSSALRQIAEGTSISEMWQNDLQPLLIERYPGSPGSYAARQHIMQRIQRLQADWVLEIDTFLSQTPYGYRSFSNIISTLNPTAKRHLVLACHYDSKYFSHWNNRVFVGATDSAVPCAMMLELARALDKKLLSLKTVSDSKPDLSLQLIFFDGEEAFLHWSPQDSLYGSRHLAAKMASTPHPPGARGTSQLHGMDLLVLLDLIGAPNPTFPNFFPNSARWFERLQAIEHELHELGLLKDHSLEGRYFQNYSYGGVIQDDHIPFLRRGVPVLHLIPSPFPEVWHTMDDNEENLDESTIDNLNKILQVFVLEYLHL

| IC50 [µM] | Compound |
| --- | --- |
| 5.8 | Brc1cc(Br)cc(C(Nc2ccc3[nH]cnc3c2)c2nnnn2-c2ccc(Oc3ccccc3)cc2)c1 (stereo not drawn) [compound 178, (1H-Benzoimidazol-5-yl)-{(3,5-dibromo-phenyl)-[1-(4-phenoxy-phenyl)-1H-tetrazol-5-yl]-methyl}-amine] |
| 3.1 | O=[N+]([O-])c1cc(C(Nc2ccc3[nH]cnc3c2)c2nnnn2CC2CCCO2)ccc1Cl (stereo not drawn) [compound 146] |

Same assay, conditions: purified compound from preparative synthesis; fluorescent assay; read-out: IC50 hQC

| IC50 [µM] | Compound |
| --- | --- |
| 0.584 | Cc1ccc(O)c(C(NCCCn2ccnc2)c2nnnn2Cc2ccc(Cl)cc2)c1 (stereo not drawn) [Compound 3, 2-[[1-(4-Chloro-benzyl)-1H-tetrazol-5-yl]-(3-imidazol-1-yl-propylamino)-methyl]-4-methyl-phenol] |

Same assay, conditions: read-out: IC50

| IC50 [µM] | Compound |
| --- | --- |
| 7.6 | CC(Cc1ccc2c(c1)OCO2)C(Nc1ccc2[nH]cnc2c1)c1nnnn1CC1CCCO1 (stereo not drawn) [compound 93, {3-Benzo[1,3]dioxol-5-yl-2-methyl-1-[1-(tetrahydro-furan-2-ylmethyl)-1H-tetrazol-5-yl]-propyl}-(1H-benzoimidazol-5-yl)-amine] |
| 2.2 | COCCCn1nnnc1C(NCCCn1ccnc1)c1ccc2cccc(O)c2n1 (stereo not drawn) [compound 34, 2-{(3-Imidazol-1-yl-propylamino)-[1-(3-methoxy-propyl)-1H-tetrazol-5-yl]-methyl}-quinolin-8-ol] |
| 0.4 | Cc1ccc(O)c(C(NCCCn2ccnc2)c2nnnn2Cc2ccc(Cl)cc2)c1 (stereo not drawn) [Compound 3, 2-[[1-(4-Chloro-benzyl)-1H-tetrazol-5-yl]-(3-imidazol-1-yl-propylamino)-methyl]-4-methyl-phenol] |
| 4.9 | CSCCC(Nc1ccc2[nH]cnc2c1)c1nnnn1C(c1ccccc1)c1ccccc1 (stereo not drawn) [compound 95, [1-(1-Benzhydryl-1H-tetrazol-5-yl)-3-methylsulfanyl-propyl]-(1H-benzoimidazol-5-yl)-amine] |
| 4.9 | Oc1cccc2ccc(C(NCCCn3ccnc3)c3nnnn3Cc3ccc(Cl)cc3)nc12 (stereo not drawn) [compound 4, 2-[[1-(4-Chloro-benzyl)-1H-tetrazol-5-yl]-(3-imidazol-1-yl-propylamino)-methyl]-quinolin-8-ol] |
| 4.9 | CN(C)CCn1nnnc1C(NCCCn1ccnc1)c1ccc2cccc(O)c2n1 (stereo not drawn) [compound 37, 2-[[1-(2-Dimethylamino-ethyl)-1H-tetrazol-5-yl]-(3-imidazol-1-yl-propylamino)-methyl]-quinolin-8-ol] |
